Data published in PMC4854023, “Orthology Analysis and In Vivo Complementation Studies to Elucidate the Role of DIR1 during Systemic Acquired Resistance in Arabidopsis thaliana and Cucumis sativus” (Frontiers in Plant Science, 2016).

Legend:
CsDIR1 = target: T1, CsDIR1 (Cucumis sativus, UniProt A0A0A0K4Q7); test: TNS fluorescence displacement; type: binding; conditions: 16 uM ligand; TNS 5 uM (methods) or 3 uM; pH 7 buffer; in cavity or allosteric
T1 construct: gene Csa_7G372360; Rosetta Gami E. coli; S-Tag thrombin purification; His-tagged
T1 sequence (A0A0A0K4Q7 25-103): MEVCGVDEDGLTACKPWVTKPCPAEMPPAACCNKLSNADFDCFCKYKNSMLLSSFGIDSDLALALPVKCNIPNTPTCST

CsDIR2 = target: T2, CsDIR2 (Cucumis sativus, UniProt A0A0A0KZ41); test: TNS fluorescence displacement; type: binding; conditions: 16 uM ligand; TNS 5 uM (methods) or 3 uM; pH 7 buffer; in cavity or allosteric
T2 construct: gene Csa_4G017140; Rosetta Gami E. coli; S-Tag thrombin purification; His-tagged
T2 sequence (A0A0A0KZ41 26-101): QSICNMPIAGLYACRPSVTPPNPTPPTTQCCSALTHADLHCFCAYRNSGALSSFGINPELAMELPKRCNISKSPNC

Structure (SMILES)	% lower TNS fluorescence than MES control (CsDIR1)	% lower TNS fluorescence than MES control (CsDIR2)
O=C(O)CCCCCCCC(=O)O [AzA]	~ 25%	~ 30%
O=C(O)[C@@H]1CCCCN1 [Pip]	~ 25%	–
